Laboratory results: patent US12643879B2, “Functionalized heterocyclic compounds as modulators of stimulator of interferon genes (STING)” (RYVU THERAPEUTICS S.A., priority 2019, dated 2026)
Structures can show the parent of a compound that is named as a salt.

Columns and labels:
[1] = system: NF-κB pathway in THP-1 dual cells; assay: THP-1 Dual reporter assay, NF-κB pathway (SEAP); type: cell-based; conditions: Homo sapiens, THP1-Dual; 18 h stimulation, absorbance at 630 or 655 nm; read-out: THP1 Dual EC50 (μM) NFkB
How it was run: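 Luminescence (IRF arm, luciferase under ISG54 minimal promoter with five ISREs) and absorbance at 630 or 655 nm (NF-κB arm, SEAP under IFN-β minimal promoter with NF-κB elements) were measured in supernatants of THP-1 dual cells stimulated 18 h with compound.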

[2] = system: interferon regulatory factor (IRF) pathway in THP-1 dual cells; assay: THP-1 Dual reporter assay, IRF pathway (luciferase); type: cell-based; conditions: Homo sapiens, THP1-Dual; 18 h stimulation, luminescence; read-out: THP1 Dual EC50 (μM) IRF
How it was run: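 After 18 h exposure of THP-1 dual cells to the STING agonist compounds, culture medium was collected. Part was mixed with luminescence reagent and read at once for IRF-driven luciferase; another part was incubated with SEAP detection medium for 1 or 2 hours at 37° C before absorbance at 630 or 655 nm.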

Row | SMILES | EC50 [1] [µM] | EC50 [2] [µM]
1 | C#CCOCCOCCOCCOCCOCCC(=O)Nc1ccc(CNC(=O)OCCOc2cc3c(cc2F)c(=O)c(CN(Cc2ccnc(C)c2)[C@H]2CCCN(c4cccnc4)C2)cn3C2CC2)cc1 [Example 84A, 2-{[1-cyclopropyl-6-fluoro-3-({[(2-methylpyridin-4-yl)methyl][(3S)-1-(pyridin-3-yl)piperidin-3-yl]amino}methyl)-4-oxo-1,4-dihydroquinolin-7-yl]oxy}ethyl N-{[4-(4,7,10,13,16-pentaoxanonadec-18-ynamido)phenyl]methyl}carbamate] | < 1 | < 1
2 | Cc1cc(CN(Cc2cn(C3CC3)c3cc(N4CC[C@H](CO)C4)c(F)cc3c2=O)[C@H]2CCCN(c3cccnc3)C2)ccn1 [Example 87, 1-cyclopropyl-6-fluoro-7-[(3S)-3-(hydroxymethyl)pyrrolidin-1-yl]-3-({[(2-methylpyridin-4-yl)methyl][(3S)-1-(pyridin-3-yl)piperidin-3-yl]amino}methyl)-1,4-dihydroquinolin-4-one hydrochloride] | < 1 | < 1
3 | Cc1cc(CN(Cc2cn(C3CC3)c3cc(OCCO)c(F)cc3c2=O)[C@H]2C[C@H](F)CN(c3cccnc3)C2)ccn1 [Example 89, 1-cyclopropyl-6-fluoro-3-({[(3S,5S)-5-fluoro-1-(pyridin-3-yl)piperidin-3-yl][(2-methylpyridin-4-yl)methyl]amino}methyl)-7-(2-hydroxyethoxy)-1,4-dihydroquinolin-4-one hydrochloride] | < 1 | < 1
4 | Cc1cc(CN(Cc2cn(C3CC3)c3cc(OCCO)c(F)cc3c2=O)[C@H]2CCCN(c3ccc(N(C)C)nc3)C2)ccn1 [Example 92, 1-cyclopropyl-3-({[(3S)-1-[6-(dimethylamino)pyridin-3-yl]piperidin-3-yl][(2-methylpyridin-4-yl)methyl]amino}methyl)-6-fluoro-7-(2-hydroxyethoxy)-1,4-dihydroquinolin-4-one hydrochloride] | < 1 | < 1
5 | Cc1cc(CN(Cc2cn(C3CC3)c3cc(N4CC[C@H](CO)C4)c(F)cc3c2=O)[C@H]2CCCN(c3cnccn3)C2)ccn1 [Example 94, 1-cyclopropyl-6-fluoro-7-[(3S)-3-(hydroxymethyl)pyrrolidin-1-yl]-3-({[(2-methylpyridin-4-yl)methyl][(3S)-1-(pyrazin-2-yl)piperidin-3-yl]amino}methyl)-1,4-dihydroquinolin-4-one hydrochloride] | < 1 | < 1

More lines, now with the values ahead:

Row | EC50 [1] [µM] | EC50 [2] [µM] | SMILES
6 | < 1 | < 1 | Cc1cc(CN(Cc2cn(C3CC3)c3cc(OCCO)c(F)cc3c2=O)[C@H]2CCCN(c3cncc(F)c3)C2)ccn1 [Example 90, 1-cyclopropyl-6-fluoro-3-({[(3S)-1-(5-fluoropyridin-3-yl)piperidin-3-yl][(2-methylpyridin-4-yl)methyl]amino}methyl)-7-(2-hydroxyethoxy)-1,4-dihydroquinolin-4-one hydrochloride]
7 | < 1 | < 1 | Cc1cc(CN(Cc2cn(C3CC3)c3cc(N4CC[C@@H](CO)C4)c(F)cc3c2=O)[C@H]2CCCN(c3cnccn3)C2)ccn1 [Example 91, 1-cyclopropyl-6-fluoro-7-[(3R)-3-(hydroxymethyl)pyrrolidin-1-yl]-3-({[(2-methylpyridin-4-yl)methyl][(3S)-1-(pyrazin-2-yl)piperidin-3-yl]amino}methyl)-1,4-dihydroquinolin-4-one hydrochloride]
8 | < 1 | < 1 | Cc1cc(CN(Cc2cn(C3CC3)c3cc(OCCO)c(F)cc3c2=O)[C@H]2CCCN(c3cncc(C(F)(F)F)c3)C2)ccn1 [Example 93, 1-cyclopropyl-6-fluoro-7-(2-hydroxyethoxy)-3-({[(2-methylpyridin-4-yl)methyl][(3S)-1-[5-(trifluoromethyl)pyridin-3-yl]piperidin-3-yl]amino}methyl)-1,4-dihydroquinolin-4-one hydrochloride]
